The assay has as its system Human RSV-A (“Long” strain). The assay is described as follows: RSV in vitro cytoprotection assay in HEp-2 cells (ATPlite readout). In kind it is cell-based. The conditions noted are these: human respiratory syncytial virus, 96 h; HEp-2 cells, 4-day incubation, ATPlite; read-out: Human RSV-A (“Long” strain) EC50. The source says:
RSV is a single stranded negative sense RNA virus that causes respiratory tract infections which can be dangerous to infants, the elderly, and immunosuppressed individuals. Currently there is no vaccine, and therapeutic options are both costly and of limited effectiveness. These approved treatments are Ribavirin, and Palivizumab/Synagis (a monoclonal antibody). RSV has two genotypes, A and B, which differ primarily in the structure of the virus' surface “G” attachment protein. Our current primary screen focusses on RSV-A and uses an in vitro cytoprotection assay where compounds are added in 2-fold dilutions to cells which are then subjected to fully replicative viral particles. Cell viability is measured several days later along with separate measurements of compound cytotoxicity. This report focuses on the results of our most recent screening of compounds.
HEp-2 cells, (originally derived from tumors grown in irradiated-cortisonised weanling rats that had been injected with epidermoid carcinoma tissue from a person's larynx, but later found to be indistinguishable from HeLa cells by PCR DNA analysis), were used for the culturing of genotype A, “Long” strain RSV. Flasks were inoculated with RSV and viral stocks were collected once cytopathic effect (CPE) was greater than 90%. Viral stocks in 25% sucrose media were snap frozen using liquid nitrogen to increase viral stability. Viral stock titers were quantified by tissue culture infectious dose 50% (TCID50) using 8,000 cells per well and 3-fold viral dilutions across a 96-well plate, cultured for 4 days.
Following extensive parameter testing, the final assay is run as follows: HEp-2 cells are seeded into the inner 60 wells of a 96-well plate at 8,000 cells per well in a volume of 50 μL using Growth Media (DMEM without phenol red, 1% L-Glut, 1% Penn/Strep, 1% nonessential amino acids, 10% FBS). 2-Fold serial dilutions of control and test compounds are added to the wells in duplicate in a total volume of 25 μL. Viral stock is then added to the wells in a volume of 25 μL, bringing the total volume of each well to 100 μL. Each 96-well plate has a control column of 6 wells with cells and virus but no compound (negative control, max CPE), a column with cells but no compound or virus (positive control, minimum CPE), and a column with no cells or virus or compound (background plate/reagent control). The control wells with cells but no virus are given an additional 25 uL of growth media containing an equal quantity of sucrose as those wells receiving the viral stock in order to keep consistent in media and volume conditions. The outer wells of the plate are filled with 125 μL of growth media to act as a thermal and evaporative moat around the test wells. Following a 4-day incubation period, the plates are read using ATPlite (50 uL added per well), which quantifies the amount of ATP (a measure of cell health) present in each well. Assay plates are read using the Envision luminometer. In parallel, cytotoxicity is examined on an additional 96-well plate treated in an identical manner, but substituting the 25 μL of viral stock for 25 μL of growth media. […] EC50 ranges are as follows: A<0.01 μM; B 0.01-0.05 μM; C>0.05 μM.
On the technique in general: Cellular ATP, detected with luciferase, serves as a proxy for viable cell number.
Turning to `O=C(Nc1c(F)cccc1F)c1cc2c(s1)-c1ccncc1N(C(=O)c1ccc(NC(=O)c3cccnc3N3CC4(CCOCC4)C3)cc1)CC2` [Example 1], the concentration for a half-maximal effect (EC50) – broadly, the concentration at which the effect is half-maximal – is greater than 50 nM.

For the molecule `O=C(Nc1c(F)cccc1Cl)c1cc2c(s1)-c1ccncc1N(C(=O)c1ccc(NC(=O)c3cccnc3N3CC4(CCOCC4)C3)cc1)CC2` [Example 2], the 50% effective concentration (EC50) is 10 to 50 nM.

With `O=C(Nc1ccc(C(=O)N2CCc3cc(-c4nc5ccccc5[nH]4)sc3-c3ccncc32)cc1)c1cccnc1N1CC2(CCOCC2)C1` [Example 3], the concentration for a half-maximal effect (EC50) was greater than 50 nM.

On to `O=C(Nc1c(F)cccc1F)c1cc2c(s1)-c1ncccc1N(C(=O)c1ccc(NC(=O)c3cccnc3N3CC4(CCOCC4)C3)cc1)CC2` [Example 4], for which the 50% effective concentration (EC50) was less than 10 nM.

Take `O=C(Nc1c(F)cccc1Cl)c1cc2c(s1)-c1ncccc1N(C(=O)c1ccc(NC(=O)c3cccnc3N3CC4(CCOCC4)C3)cc1)CC2` [Example 5]: the EC50 is less than 10 nM.

With `O=C(Nc1ccc(C(=O)N2CCc3cc(-c4nc5ccccc5[nH]4)sc3-c3ncccc32)cc1)c1cccnc1N1CC2(CCOCC2)C1` [Example 6], the EC50 is greater than 50 nM.

Take `Cc1cnc(N2CC3(CCOCC3)C2)c(C(=O)Nc2ccc(C(=O)N3CCc4cc(C(=O)Nc5c(C)cccc5C)sc4-c4ncccc43)cc2)c1` [Example 7]: the concentration giving a half-maximal response (EC50) was less than 10 nM.

`Cc1cnc(N2CC3(CCOCC3)C2)c(C(=O)Nc2ccc(C(=O)N3CCc4cc(C(=O)Nc5c(C)cccc5C#N)sc4-c4ncccc43)cc2)c1` [Example 8]: the EC50 is less than 10 nM.

With `Cc1cnc(N2CC3(CCOCC3)C2)c(C(=O)Nc2ccc(C(=O)N3CCc4cc(C(=O)Nc5c(F)cccc5F)sc4-c4ncccc43)cc2)c1` [Example 9], the EC50 was less than 10 nM.

As to `Cc1cnc(N2CC3(CCOCC3)C2)c(C(=O)Nc2ccc(C(=O)N3CCc4cc(C(=O)Nc5c(F)cc(F)cc5F)sc4-c4ncccc43)cc2)c1` [Example 10], the EC50 was less than 10 nM.

Regarding `Cc1cnc(N2CC3(CCOCC3)C2)c(C(=O)Nc2ccc(C(=O)N3CCc4cc(C(=O)Nc5c(C)cccc5F)sc4-c4ncccc43)cc2)c1` [Example 11], the EC50 is less than 10 nM.

As for `Cc1cnc(N2CC3(CCOCC3)C2)c(C(=O)Nc2ccc(C(=O)N3CCc4cc(C(=O)Nc5c(Cl)cccc5Cl)sc4-c4ncccc43)cc2)c1` [Example 12], the EC50 was less than 10 nM.

Turning to `Cc1cnc(N2CC3(CCOCC3)C2)c(C(=O)Nc2ccc(C(=O)N3CCc4cc(C(=O)Nc5ncccn5)sc4-c4ncccc43)cc2)c1` [Example 14], the EC50 was in the range of 10 to 50 nM.

Take `Cc1cnc(N2CC3(CCOCC3)C2)c(C(=O)Nc2ccc(C(=O)N3CCc4cc(C(=O)Nc5ncccc5F)sc4-c4ncccc43)cc2)c1` [Example 15]: the EC50 was less than 10 nM.

As for `Cc1cnc(N2CC3(CCOCC3)C2)c(C(=O)Nc2ccc(C(=O)N3CCc4cc(C(=O)Nc5ncc(C)s5)sc4-c4ncccc43)cc2)c1` [Example 16], the EC50 was less than 10 nM.

For `Cc1cnc(N2CC3(CCOCC3)C2)c(C(=O)Nc2ccc(C(=O)N3CCc4cc(C(=O)N[C@@H]5CCOC5)sc4-c4ncccc43)cc2)c1` [Example 17], the EC50 is 10 to 50 nM.

Consider `Cc1cnc(N2CC3(CCOCC3)C2)c(C(=O)Nc2ccc(C(=O)N3CCc4cc(C(=O)N[C@H]5CCOC5)sc4-c4ncccc43)cc2)c1` [Example 18], for which the concentration for a half-maximal effect (EC50) fell in the range of 10 to 50 nM.

`Cc1cnc(N2CC3(CCOCC3)C2)c(C(=O)Nc2ccc(C(=O)N3CCc4cc(C(=O)Nc5ccccn5)sc4-c4ncccc43)cc2)c1` [Example 19]: the concentration for a half-maximal effect (EC50) was less than 10 nM.

As for `Cc1cnc(N2CC3(CCOCC3)C2)c(C(=O)Nc2ccc(C(=O)N3CCc4cc(C(=O)Nc5cccnc5)sc4-c4ncccc43)cc2)c1` [Example 20], the EC50 was less than 10 nM.

For `Cc1cnc(N2CC3(CCOCC3)C2)c(C(=O)Nc2ccc(C(=O)N3CCc4cc(C(=O)Nc5ccncc5)sc4-c4ncccc43)cc2)c1` [Example 21], the EC50 is less than 10 nM.

Take `Cc1cnc(N2CC3(CCOCC3)C2)c(C(=O)Nc2ccc(C(=O)N3CCc4cc(C(=O)Nc5ncccc5C)sc4-c4ncccc43)cc2)c1` [Example 22]: the EC50 is less than 10 nM.

With `Cc1cnc(N2CC3(CCOCC3)C2)c(C(=O)Nc2ccc(C(=O)N3CCc4cc(C(=O)Nc5cccc(C)n5)sc4-c4ncccc43)cc2)c1` [Example 23], the EC50 was less than 10 nM.

Take `Cc1cnc(N2CC3(CCOCC3)C2)c(C(=O)Nc2ccc(C(=O)N3CCc4cc(C(=O)NCc5ccco5)sc4-c4ncccc43)cc2)c1` [Example 24]: the EC50 is less than 10 nM.

As for `COCC1(NC(=O)c2cc3c(s2)-c2ncccc2N(C(=O)c2ccc(NC(=O)c4cc(C)cnc4N4CC5(CCOCC5)C4)cc2)CC3)CCC1` [Example 25], the 50% effective concentration (EC50) is less than 10 nM.

Regarding `Cc1cnc(N2CC3(CCOCC3)C2)c(C(=O)Nc2ccc(C(=O)N3CCc4cc(C(=O)NCc5ccccn5)sc4-c4ncccc43)cc2)c1` [Example 26], the EC50 is less than 10 nM.

`Cc1cnc(N2CC3(CCOCC3)C2)c(C(=O)Nc2ccc(C(=O)N3CCc4cc(C(=O)NC5CCOCC5)sc4-c4ncccc43)cc2)c1` [Example 27]: the EC50 is less than 10 nM.

In the case of `Cc1cnc(N2CC3(CCOCC3)C2)c(C(=O)Nc2ccc(C(=O)N3CCc4cc(C(=O)NC[C@H]5CCCO5)sc4-c4ncccc43)cc2)c1` [Example 28], the EC50 is less than 10 nM.

Consider `Cc1cnc(N2CC3(CCOCC3)C2)c(C(=O)Nc2ccc(C(=O)N3CCc4cc(C(=O)NCC5CCCO5)sc4-c4ncccc43)cc2)c1` (stereo not shown) [Example 29], for which the concentration for a half-maximal effect (EC50) is less than 10 nM.

Regarding `Cc1cnc(N2CC3(CCOCC3)C2)c(C(=O)Nc2ccc(C(=O)N3CCc4cc(C(=O)Nc5ncco5)sc4-c4ncccc43)cc2)c1` [Example 30], the EC50 was in the range of 10 to 50 nM.

Regarding `Cc1cnc(N2CC3(CCOCC3)C2)c(C(=O)Nc2ccc(C(=O)N3CCc4cc(C(=O)Nc5cccnn5)sc4-c4ncccc43)cc2)c1` [Example 31], the EC50 was less than 10 nM.

Regarding `Cc1cnc(N2CC3(CCOCC3)C2)c(C(=O)Nc2ccc(C(=O)N3CCc4cc(C(=O)Nc5cccnc5C)sc4-c4ncccc43)cc2)c1` [Example 32], the EC50 was less than 10 nM.

Regarding `Cc1cnc(N2CC3(CCOCC3)C2)c(C(=O)Nc2ccc(C(=O)N3CCc4cc(C(=O)Nc5cnccc5C)sc4-c4ncccc43)cc2)c1` [Example 33], the EC50 is less than 10 nM.

Regarding `Cc1cnc(N2CC3(CCOCC3)C2)c(C(=O)Nc2ccc(C(=O)N3CCc4cc(C(=O)Nc5ccncc5C)sc4-c4ncccc43)cc2)c1` [Example 34], the 50% effective concentration (EC50) is less than 10 nM.

In the case of `Cc1cnc(N2CC3(CCOCC3)C2)c(C(=O)Nc2ccc(C(=O)N3CCc4cc(C(=O)Nc5nccs5)sc4-c4ncccc43)cc2)c1` [Example 35], the EC50 was less than 10 nM.

With `Cc1cnc(N2CC3(CCOCC3)C2)c(C(=O)Nc2ccc(C(=O)N3CCc4cc(C(=O)NCc5cccnc5)sc4-c4ncccc43)cc2)c1` [Example 36], the 50% effective concentration (EC50) was in the range of 10 to 50 nM.

In the case of `Cc1cnc(N2CC3(CCOCC3)C2)c(C(=O)Nc2ccc(C(=O)N3CCc4cc(C(=O)Nc5c(Cl)cncc5Cl)sc4-c4ncccc43)cc2)c1` [Example 37], the concentration for a half-maximal effect (EC50) is less than 10 nM.

As for `Cc1cnc(N2CC3(CCOCC3)C2)c(C(=O)Nc2ccc(C(=O)N3CCc4cc(-c5nc6ccccc6[nH]5)sc4-c4ncccc43)cc2)c1` [Example 38], the EC50 was 10 to 50 nM.

Turning to `Cc1ccc(C(=O)Nc2ccc(C(=O)N3CCc4cc(C(=O)Nc5c(F)cccc5F)sc4-c4ncccc43)cc2)c(N2CC3(CCOCC3)C2)n1` [Example 39], the EC50 was less than 10 nM.

Consider `Cc1ccc(C(=O)Nc2ccc(C(=O)N3CCc4cc(C(=O)Nc5c(F)cc(F)cc5F)sc4-c4ncccc43)cc2)c(N2CC3(CCOCC3)C2)n1` [Example 40], for which the half-maximal effective concentration (EC50) is less than 10 nM.

In the case of `Cc1ccc(C(=O)Nc2ccc(C(=O)N3CCc4cc(C(=O)Nc5c(C)cccc5F)sc4-c4ncccc43)cc2)c(N2CC3(CCOCC3)C2)n1` [Example 41], the EC50 was less than 10 nM.

Turning to `Cc1ccc(C(=O)Nc2ccc(C(=O)N3CCc4cc(-c5nc6ccccc6[nH]5)sc4-c4ncccc43)cc2)c(N2CC3(CCOCC3)C2)n1` [Example 42], the concentration giving a half-maximal response (EC50) is less than 10 nM.

Consider `Cc1ccc(C(=O)Nc2ccc(C(=O)N3CCc4cc(-c5nc6cccc(Cl)c6[nH]5)sc4-c4ncccc43)cc2)c(N2CC3(CCOCC3)C2)n1` [Example 43], for which the 50% effective concentration (EC50) lay within 10 to 50 nM.

In the case of `Cc1ccc(C(=O)Nc2ccc(C(=O)N3CCc4cc(C(=O)Nc5c(F)cccc5Cl)sc4-c4ncccc43)cc2)c(N2CC3(CCOCC3)C2)n1` [Example 44], the EC50 is less than 10 nM.

Values taken from patent US10851115B2, “Heterocyclic compounds as RSV inhibitors” (Enanta Pharmaceuticals, Inc., priority 2017, dated 2020).
